Converted amounts (≈) assume the structure as drawn. Like-named read-outs stand apart in the source and are kept apart here.
What was measured:
M. avium 101 = assay: Broth dilution MIC vs M. avium 101; type: cell-based; details: Mycobacterium avium, modified 7H10 broth, lowest concentration with no turbidity
M. avium (ATCC 25291) = assay: TAACF M. avium assay; type: cell-based, Mycobacterium avium; details: Mycobacterium avium
M. kansasii swank = assay: Broth dilution MIC vs M. kansasii swank; type: cell-based; details: Mycobacterium kansasii; modified 7H10 broth, lowest concentration with no turbidity
[1] = system: M. tuberculosis Erdman (ATCC 35801) in monolayers of mouse bone marrow macrophages; assay: Killing of M. tuberculosis Erdman in mouse bone marrow macrophages; type: cell-based; details: Mycobacterium tuberculosis, Bone marrow macrophage, 168 h
VERO cells = assay: Cytotoxicity in VERO cells (MTT, 72 hours); type: cell-based; details: Chlorocebus sabaeus
[2] = Quantitative estimate of relative lipophilicity (chloroform/water partitioning vs isoniazid); details: ratio chloroform:water compared to same ratio for isoniazid as standard (INH = unity)
[3] = system: Mycobacterium tuberculosis H37Rv (ATCC 27294); assay: TAACF MIC / primary screen vs M. tuberculosis H37Rv (MABA or BACTEC 460); type: cell-based; details: for MIC: Mycobacterium tuberculosis
M. tuberculosis INH-r = assay: microbe, parasite or virus in culture; type: cell-based; details: Mycobacterium tuberculosis, read-out: MBC vs INH-r (ug/ml)
M. tuberculosis H37Rv = assay: Minimum bactericidal concentration vs H37Rv; type: cell-based; details: Mycobacterium tuberculosis, read-out: MBC vs H37Rv (ug/ml)
M. tuberculosis RMP-R = assay: microbe, parasite or virus in culture; type: cell-based; details: Mycobacterium tuberculosis, read-out: MBC vs RMP-R (ug/ml)
M. tuberculosis TAC-R = assay: microbe, parasite or virus in culture; type: cell-based; details: Mycobacterium tuberculosis, Bactec, strain panel
M. tuberculosis Erdman = assay: MIC vs M. tuberculosis Erdman; type: cell-based; details: Mycobacterium tuberculosis
[4] = M. tuberculosis assay, Tables 4 and 5, read-out: MIC
[5] = Bactec, strain panel, read-out: MIC H37Rv
[6] = M. tuberculosis assay, Bactec, Tables 6, 7, 8, read-out: MIC
[7] = ATCC25291, M. avium assay, BACTEC, Tables 2 and 3, read-out: MIC

O=CNNC(=O)c1ccncc1
melting point: 94 to 96 °C

CC(=O)NNC(=O)c1ccncc1
melting point: 158 to 160 °C

CCCC(=O)NNC(=O)c1ccncc1
melting point: 142 °C

CCCCC(=O)NNC(=O)c1ccncc1
melting point: 162 °C

CC[C@H]1OC(=O)[C@H](C)[C@@H](O[C@H]2C[C@@](C)(OC)[C@@H](O)[C@H](C)O2)[C@H](C)[C@@H](O[C@@H]2O[C@H](C)C[C@H](N(C)C)[C@H]2O)[C@](C)(OC)C[C@@H](C)C(=O)[C@H](C)[C@@H](O)[C@]1(C)O [Clarithromycin, reference compound]
MIC (M. avium 101): 2 µg/mL (≈ 2.67 µM)
MIC (M. avium (ATCC 25291); ATCC25291, reference control, read-out: MIC Clarithromycin vs. M. avium (control in Comment column)): 2 µg/mL (≈ 2.67 µM)

NNC(=O)c1ccncc1 [INH, isonicotinic acid hydrazide, reference compound]
MIC (M. kansasii swank): 1 µg/mL (≈ 7.29 µM)
EC90 [1]: 0.21 µg/mL (≈ 1.53 µM)
EC99 [1]: > 0.4 µg/mL
IC50 (VERO cells): > 1000 µg/mL

CC(=O)N1N=C(c2ccncc2)OC1c1c(Cl)cccc1Cl (stereo not shown) [Oxadiazoline Example 4, 2-(2,6-Dichlorophenyl)-3-acetyl-5-(4-pyridyl)-1,3,4-oxadiazoline]
Relative Lipophilicity [2]: 35,667

CO[C@H]1/C=C/O[C@@]2(C)Oc3c(C)c(O)c4c(O)c(c(/C=N/N5CCN(C)CC5)c(O)c4c3C2=O)NC(=O)/C(C)=C\C=C\[C@H](C)[C@H](O)[C@@H](C)[C@@H](O)[C@@H](C)[C@H](OC(C)=O)[C@@H]1C [RMP, rifampin, reference compound]
MIC ([3]; read-out: MIC of RMP vs H37Rv (Comment, Table 9), control in MBC test): 0.5 µg/mL
% inhibition vs. M. tuberculosis (RMP control, Comment) ([3]; RMP at its MIC 0.25 μg/ml): 99%
IC50 (VERO cells): 68 µg/mL (≈ 82.6 µM)

CCC/C(CC(=O)OCC)=N/NC(=O)c1ccncc1 [Sample ID 101702]
MIC ([3]; M. tuberculosis assay, Alamar, Tables 7 and 9): 0.39 µg/mL (≈ 1.41 µM)
MBC (M. tuberculosis INH-r): > 12.5 µg/mL
MBC (M. tuberculosis H37Rv): ≥ 0.19 µg/mL
MBC (M. tuberculosis RMP-R): 0.39 µg/mL (≈ 1.41 µM)

CCOC(=O)C/C(C)=N/NC(=O)c1ccncc1 [Sample ID 101743]
MIC [3, 4]: 0.2 µg/mL (≈ 0.802 µM)
EC90 [1]: 0.01 µg/mL (≈ 0.0401 µM)
EC99 [1]: > 3.2 µg/mL

O=C(N/N=C/c1cccc(/C=N/NC(=O)c2ccncc2)c1)c1ccncc1 [Sample ID 102043]
MIC [3, 4]: 0.05 µg/mL (≈ 0.134 µM)
EC90 [1]: 0.04 µg/mL (≈ 0.107 µM)
EC99 [1]: > 0.8 µg/mL

CC(C)=CCCC(C)C/C=N/NC(=O)c1ccncc1 (stereo not shown) [Sample ID 102044]
MIC [3, 5]: < 0.1 µg/mL
MIC [3, 6]: 0.2 µg/mL (≈ 0.732 µM)
MIC [3, 4]: 0.2 µg/mL (≈ 0.732 µM)
MIC (M. tuberculosis TAC-R): 3.13 µg/mL (≈ 11.4 µM)
MIC (M. avium (ATCC 25291); [7]): 0.78 µg/mL (≈ 2.85 µM)
MIC (M. tuberculosis Erdman; Bactec, strain panel, read-out: MIC Erdman): < 0.1 µg/mL
EC90 [1]: 0.02 µg/mL (≈ 0.0732 µM)
EC99 [1]: 0.08 µg/mL

CCCCOc1ccc(/C=N/NC(=O)c2ccncc2)cc1 [Sample ID 102090]
MIC [3, 4]: 0.1 µg/mL (≈ 0.336 µM)
EC90 [1]: 0.18 µg/mL (≈ 0.605 µM)
EC99 [1]: > 1.6 µg/mL

CCCCCCCCCCCC/C=N/NC(=O)c1ccncc1 [Sample ID 102094]
MIC [3, 4]: 0.2 µg/mL (≈ 0.63 µM)
EC90 [1]: 0.08 µg/mL (≈ 0.252 µM)
EC99 [1]: > 3.2 µg/mL

O=C(NN=C1CCCCC1)c1ccncc1 [Sample ID 102674]
MIC [3, 4]: 0.03 µg/mL (≈ 0.138 µM)
EC90 [1]: 0.08 µg/mL (≈ 0.368 µM)
EC99 [1]: > 0.4 µg/mL

CC(C)=NNC(=O)c1ccncc1 [Sample ID 102752]
MIC [3, 4]: 0.1 µg/mL (≈ 0.564 µM)
EC90 [1]: 0.03 µg/mL (≈ 0.169 µM)
EC99 [1]: 0.14 µg/mL

O=C(N/N=C/c1ccccc1)c1ccncc1 [Sample ID 102787]
MIC [3, 4]: 0.1 µg/mL (≈ 0.444 µM)
EC90 [1]: 0.04 µg/mL (≈ 0.178 µM)
EC99 [1]: 0.12 µg/mL

COc1cc(/C=N/NC(=O)c2ccncc2)ccc1O [Sample ID 102858]
MIC [3, 4]: 0.2 µg/mL (≈ 0.737 µM)
EC90 [1]: 0.03 µg/mL (≈ 0.111 µM)
EC99 [1]: 0.12 µg/mL

COc1ccc(/C=N/NC(=O)c2ccncc2)cc1 [Sample ID 102866]
MIC [3, 5]: < 0.05 µg/mL
MIC [3, 6]: 0.1 µg/mL (≈ 0.392 µM)
MIC [3, 4]: 0.1 µg/mL (≈ 0.392 µM)
MIC (M. tuberculosis TAC-R): < 3.25 µg/mL
MIC (M. avium (ATCC 25291); [7]): 3.25 µg/mL (≈ 12.7 µM)
MIC (M. tuberculosis Erdman; read-out: MIC Erdman (ug/ml)): < 0.05 µg/mL
EC90 [1]: 0.04 µg/mL (≈ 0.157 µM)
EC99 [1]: 0.15 µg/mL
